Results from patent US20070270461A1, “Fungicide” (Valent BioSciences Corporation, priority 2006, published 2007).

Columns and labels:
[1] = test system: Botrytis cinerea; assay: Detached bean leaf bioassay, fungal control; format: in vivo; conditions: 200 ppm on detached bean leaf; 100 minus percent necrotic area, three days after inoculation
Experimental: Compound solution: Compound solutions were prepared by diluting compound stock solutions (1.0% w/v compound in DMSO) to 200 ppm with 0.01% w/v Triton X-100. Spore solution preparation: Botrytis cinerea spores were taken from 6-week-old cultures grown at 22 C on full strength potato dextrous agar (PDA) plates and harvested in 1:16 frozen orange juice concentrate:water. Botrytis cinerea spore solutions were prepared by diluting spore cultures to 5×10^4 spores/mL with 1:16 frozen orange juice concentrate:water. Plant material: Middle trifoliate leaves of greenhouse grown Phaseolus vulgaris (Bush bean cv. Blue Lake 274) were excised and placed on a plastic grid above a tray containing moist towels. Treatment method: One half of the adaxial surface of the leaf was treated with the compound solution (100 :L) using a 3 cm Bacti Cell Spreader. A blank consisted of 0.01% w/v Triton X-100. A commercial fungicide control (200 ppm diluted with water) consisted of Scala. […] Fungal control rating: Three days after inoculation with Botrytis, the percent necrotic area under the inoculation droplet was determined. Since the areas under the blank (0.01% w/v Triton X-100) were 100% infected, fungal control was expressed as 100 minus the percent necrotic area, and thus 0% infected is 100% fungal control (n=3 leaves/compound, 5 inoculation droplets/leaf, Table 2).

[2] = test system: Sclerotinia sclerotiorum; assay: Contact evaluation (microtiter plate); format: cell-based; conditions: Sclerotinia sclerotionum
Experimental: (§1) Compound solution: Contact evaluations were conducted to determine the anti-fungal activity of each compound against Botrytis cinerea, Sclerotinia sclerotiorum, Pythium aphanidermatum, Rhizoctonia solani, Cercospora arachidicola, Mycosphaerella fijiensis, and Monilinia laxa. Five milligrams of each compound were dissolved in 0.5 milliliter of DMSO for a compound stock solution of 1.0% w/v. Compound stock solutions were serial diluted with DMSO to 20, 10, and 2 ppm final well concentration.
(§2) Fungi preparation: Botrytis cinerea spores were taken from 6-week-old cultures grown at 22 C on full strength potato dextrous agar (PDA) plates. Sclerotinia sclerotiorum, Pythium aphanidermatum, Rhizoctonia solani, and Monilinia laxa mycelia were taken from 4- to 10-day-old shake flask cultures grown at room temperature on full strength potato dextrous broth (PDB). Cercospora arachidicola mycelia were taken from 10- to 14-day-old shake flask cultures grown at room temperature on a full strength PDB amended with peanut oil. Mycosphaerella fijiensis mycelia were taken from 10- to 14-day-old shake flask cultures grown at room temperature on V8 juice broth. Sclerotinia sclerotiorum, Pythium aphanidermatum, Rhizoctonia solani, Cercospora arachidicola, and Mycosphaerella fijiensis mycelia (0.4 g mycelia) were blended for 45 seconds in 20 mL sterile de-ionized water. Monilinia laxa mycelia (1 g mycelia) was blended for 45 seconds in 30 mL of sterile de-ionized water. Botrytis cinerea spores were diluted with quarter strength PDB to 1×10^5 spores/mL final well concentration. All mycelia were diluted in water (1:5 mycelia:water) before distributing into the wells.
(§3) Microtiter plate preparation: Compound solution (10 :L), quarter strength PDB (900 :L) and fungi preparation (100 :L) were sequentially distributed into 48-well microtiter plates (n=3 replications/compound/rate). A blank consisted of quarter strength PDB and fungi preparation. Commercial fungicide controls (100 ppm diluted with water) consisted of Scala for Botrytis cinerea, Dithane F-45 for Mycosphaerella fijiensis, and Benlate for Sclerotinia sclerotiorum, Pythium aphanidermatum, Rhizoctonia solani, Cercospora arachidicola, and Monilinia laxa. Plates were shaken in a circular rotator at room temperature for 20 minutes, then incubated at 25 C for 24 to 72 hours, depending on the pathogen.
(§4) Fungal control ratings: Fungal growth in wells containing the compounds were compared to the positive control and fungal inhibition was rated as full, partial, or none. Final readings were the average of the three wells (Table 1).

[3] = test system: Rhizoctonia solani; assay: Contact evaluation (microtiter plate); format: cell-based; conditions: Rhizoctinia solani
Experimental: as §1, §2, §3, §4

[4] = test system: Botrytis cinerea; assay: Contact evaluation (microtiter plate); format: cell-based
Experimental: as §1, §2, §3, §4

[5] = test system: Cercospora arachidicola; assay: Contact evaluation (microtiter plate); format: cell-based
Experimental: as §1, §2, §3, §4

[6] = test system: Pythium aphanidermatum; assay: Contact evaluation (microtiter plate); format: cell-based
Experimental: as §1, §2, §3, §4

[7] = test system: Mycosphaerella fijiensis; assay: Contact evaluation (microtiter plate); format: cell-based
Experimental: as §1, §2, §3, §4

[8] = test system: Monilinia laxa; assay: Contact evaluation (microtiter plate); format: cell-based
Experimental: as §1, §2, §3, §4

[9] = test system: Phaseolus vulgaris (Bush bean cv. Blue Lake 274) leaves; assay: Detached bean leaf bioassay, phytotoxicity rating; format: in vivo; conditions: 200 ppm on detached bean leaf; rated no, slight, moderate or excessive phytotoxicity
Experimental: Compound solution: Compound solutions were prepared by diluting compound stock solutions (1.0% w/v compound in DMSO) to 200 ppm with 0.01% w/v Triton X-100. Plant material: Middle trifoliate leaves of greenhouse grown Phaseolus vulgaris (Bush bean cv. Blue Lake 274) were excised and placed on a plastic grid above a tray containing moist towels. Treatment method: One half of the adaxial surface of the leaf was treated with the compound solution (100 :L) using a 3 cm Bacti Cell Spreader. A blank consisted of 0.01% w/v Triton X-100. A commercial fungicide control (200 ppm diluted with water) consisted of Scala. After the solutions dried, the trays containing the leaves were covered and held one day in a growth chamber (22 C). The adaxial surfaces of the leaves were then inoculated with 5-60 :L droplets of Botrytis cinerea spore solution. Phytotoxicity ratings: Phytotoxicity was rated as 0=no phytotoxicity, 1=slight phytotoxicity, 2=moderate phytotoxicity, or 3=excessive phytotoxicity (Table 2).

OCCOc1c(Br)cc(Br)c2cccnc12 [Example 1, 5,7-dibromo-8-(2-hydroxyethoxy) quinoline]
Full: Control of fungi (full, partial, none) ([2]; fungicide rate 2 ppm) | Control of fungi (full, partial, none) ([2]; fungicide rate 10 ppm) | Control of fungi (full, partial, none) ([2]; fungicide rate 20 ppm) | Control of fungi (full, partial, none) ([3]; fungicide rate 2 ppm) | Control of fungi (full, partial, none) ([3]; fungicide rate 10 ppm) | Control of fungi (full, partial, none) ([3]; fungicide rate 20 ppm) | Control of fungi (full, partial, none) ([4]; fungicide rate 10 ppm) | Control of fungi (full, partial, none) ([4]; fungicide rate 20 ppm) | Control of fungi (full, partial, none) ([5]; fungicide rate 10 ppm) | Control of fungi (full, partial, none) ([5]; fungicide rate 20 ppm) | Control of fungi (full, partial, none) ([6]; fungicide rate 2 ppm) | Control of fungi (full, partial, none) ([6]; fungicide rate 10 ppm) | Control of fungi (full, partial, none) ([6]; fungicide rate 20 ppm) | Control of fungi (full, partial, none) ([7]; fungicide rate 2 ppm) | Control of fungi (full, partial, none) ([7]; fungicide rate 10 ppm) | Control of fungi (full, partial, none) ([7]; fungicide rate 20 ppm) | Control of fungi (full, partial, none) ([8]; fungicide rate 2 ppm) | Control of fungi (full, partial, none) ([8]; fungicide rate 10 ppm) | Control of fungi (full, partial, none) ([8]; fungicide rate 20 ppm)
128 to 131 °C: melting point
Partial: Control of fungi (full, partial, none) ([4]; fungicide rate 2 ppm)
Slight: Phytotoxity (200 ppm) [9]
None: Control of fungi (full, partial, none) ([5]; fungicide rate 2 ppm)
100%: Botrytis cinerea control (200 ppm) [1]
